According to a melting point compilation (Tetko et al.; mined from patent text by program, amines drawn as free bases though some values may be those of a salt):

Structure (SMILES) | melting point [°C]
CCOC(=O)N1CCCC(Nc2nc3ccccc3[nH]2)CC1 (centres undefined) | 175
COC(=O)Cc1cc(=O)[nH]c2ccccc12 | 209 to 210
O=C(NCC(=O)N1[C@@H](c2ccccc2O)CC[C@H]1c1ccccc1)Nc1cccc(C(=O)O)c1 (racemic) | 160
CC(=O)Nc1c([N+](=O)[O-])cc(Br)c2c1CN(C(C)=O)CC2 | 173 to 175
COc1cccc(-n2nc(Cl)cc2-c2ccc(S(C)(=O)=O)cc2)c1 | 103 to 104
Nc1ncnc2nc(-c3cccc(Cl)c3)cnc12 | 260 to 264
Oc1ccc(Nc2ccc3cc(O)ccc3c2)cc1 | 195 to 196
Cc1ccc(OC2CN(S(=O)(=O)c3ccc(C)cc3)CCc3ccccc32)cc1 (centres undefined) | 84 to 86
CCN1CN(c2cccc(C(F)(F)F)c2)c2ncccc2C1=O | 108 to 109
C#CCOc1ccc([N+](=O)[O-])cc1 | 108 to 110
CCOC(=O)c1cn(C)c2cnc3cc(F)c(N4CCN(c5cccc(OC)c5)C(C)C4)cc3c2c1=O (centres undefined) | 226
O=C(O)CCCc1ccc(-c2ccc(F)cc2)cc1 | 118 to 120
COCOc1cc(C(F)(F)F)ccc1-c1cc(Oc2ccc3cccnc3c2)ncn1 | 98.8 to 99.4
CCCN1CCO[C@@H]2c3cc(C(=O)N(C)C)ccc3CC[C@H]21 (relative stereo) | 85 to 87
CCCc1c(O)ccc(C(=O)OC)c1O | 66 to 68
CC(C)COC(=O)N[C@H](CCCNC(=O)OCc1ccccc1)C(=O)NCc1ccc(CC(N)=O)cc1 | 145
O=c1oc(-c2ccc(OCCc3ccccc3)cc2)cc(O)c1SCCc1ccccc1 | 103 to 106
CCC(CC)n1nnc2cc(C)c(C)c([N+](=O)[O-])c21 | 106 to 108
Nn1ccc(C(=O)c2ccccc2)c1 | 82 to 83
CCCCOC(=O)N1C(=O)[C@H](O)[C@@H]1c1ccccc1 | 88 to 89
C=C(F)c1c[nH]c(=O)[nH]c1=O | 235 to 238
NC(=O)n1ccc(-c2ccc(Oc3ccc(F)cc3)cc2)n1 | 141 to 143
Clc1cccc2c1c(Cl)nc1c(-c3nc(C4CC4)no3)ncn12 | 238 to 240
FC(F)(F)c1cnc2nc1Nc1cccc(c1)/C=C\c1cccc(c1)N2 | 167 to 169
CC(C)COC[C@H](CC(C)C)NC(=O)[C@H]1O[C@@H]1C(=O)O | 63

Structure (SMILES) | melting point [°C]
c1ccc2c(c1)CC1CN(Cc3c[nH]c4ncccc34)CCN21 (centres undefined) | 197 to 198
CCNC(=O)C1(CCCc2ccccc2)c2ccccc2Oc2ccccc21 | 130
Oc1ccc(-c2nsc3ccccc23)c(Cl)c1Cl | 224 to 226
Cc1nccn1CCCC1CCc2onc(-c3ccccc3)c2C1=O (centres undefined) | 97 to 99
COc1cc(OC)n2sc(=NS(=O)(=O)c3c(-c4nnn(C)n4)cnn3C)nc2n1 | 182 to 183
CC(C)c1c(C=O)c(-c2ccccc2)c2c3ccccc3cnn12 | 163 to 164
CCOC(=O)C1CC2CC(=O)CCC2CN1C(=O)OC (centres undefined) | 79 to 80
CCCCCCCCS(=O)(=O)CCCC(=O)OO | 113 to 115
COC(=O)[C@H](Cc1ccc(-c2ccccc2)cc1)NC(=O)OC(C)(C)C | 83 to 85
Cn1nc(-c2c(F)cccc2Cl)nc1-c1sc(Cl)c(Cl)c1Cl | 129 to 130
Nn1c(C2CC2)cc(-c2ccc(C(F)(F)F)cc2)cc1=O | 132
CN(C)CCNc1ccnc2cc3c(cc12)OCO3 | 193 to 194
CCOC(CCNC(=O)CCC(=O)NCCC(OCC)OCC)OCC | 89 to 90
COc1ccc(OC)c2c1C[C@@H](O)[C@H](N1CCN(c3ccccc3C)CC1)C2 (relative stereo) | 217 to 219
OCc1ccc(-c2nn(Cc3ccccc3)c3ccccc23)o1 | 108 to 109
CC1(C(=O)Nc2ccc(Oc3ccc(Cl)cc3)c(C(F)(F)F)c2)CC1 | 115 to 117
Cn1cc(C(=O)NCc2ccc(Cl)cc2)c(=O)c2cc(COCC[C@@H](O)c3ccccc3)sc21 | 154 to 156
CCOCc1nc2c(N)nc3cc(Br)ccc3c2n1CC1(O)CCCC1 | 128 to 130
Cn1cc(C(=O)c2ccccc2)c2c(Nc3cccc(N)c3)ncnc21 | 170 to 173
CCCCCCNC(=O)Nc1ccccc1C(=O)NCCC1CCN(C(c2ccccc2)c2ccccc2)CC1 | 143 to 144
CC(=O)OC(=O)c1ccc(N2C(=O)NC(N(CC(C)C)C(C)=O)NC2=O)cc1 | 134 to 137
O=C1CCC(C(=O)O)(c2ccccc2)CC1 | 136 to 140
CS(=O)(=O)c1ccc(C[C@@H](N)[C@H](O)C(=O)C2(C(=O)O)CC2N)cc1 (some centres undefined) | 256 to 258
CCCCOCCOc1ccc(-c2ccc(N3CC=CC3)c(C=O)c2)cc1 | 79 to 81
CCCCc1ncc(CC(Cc2ccccc2)C(=O)O)n1Cc1ccc(C(=O)O)cc1 (centres undefined) | 120 to 124

Structure (SMILES) | melting point [°C]
CCCOc1ccc(-c2scc(-c3ccccc3Cl)c2CC(=O)NC(=N)NCCCO)cc1C | 73 to 76
Cc1c(C(=O)O)oc2cc(SC(=O)N(C)C)ccc12 | 188 to 190
CCCc1nc2c(C)ccc(OCc3ccccc3)c2[nH]1 | 192 to 194
CC(C)Oc1cccc(C(CC(=O)O)NS(=O)(=O)c2ccc3ccccc3c2)c1 (centres undefined) | 126
COCOc1ccc(C(=O)CI)c(OCc2ccccc2)c1 | 66 to 68
CN1CCN(C(=O)Nc2ccccc2C=Cc2cc(C(C)(C)C)c(O)c(C(C)(C)C)c2)CC1 | 192 to 194
O=C1CC(=Cc2c[nH]c3ccccc23)C(=O)O1 | 90 to 91
COC1C(OC(=O)c2ccccc2)C=C(C)C(=O)CC1(C)C (centres undefined) | 97 to 98
CS(=O)(=O)Nc1ccc(C(O)CN2CCCCCC2)cc1 (centres undefined) | 120 to 122
O=C(O)Cc1cc(C(=O)c2ccccc2F)ccc1O | 102
CCC(CN1CCCCC1)C(=O)c1cc(-c2ccccc2)no1 (centres undefined) | 83 to 84
COc1ccc(CC(=O)NO[C@@H](C)c2ccccc2)cc1 | 60 to 61
CCc1ccccc1-c1nc(-c2cccc(OC)c2)nn1C(=O)Nc1ccc(C)cc1 | 141 to 142
O=[N+]([O-])c1ccc2[nH]cc(C3=CCC4(CC3)OCCO4)c2c1 | 175 to 177
O=C(NNC(=O)c1ccccc1C(F)(F)F)c1ccccc1F | 171 to 173
CCOc1ccc(Nc2ncc(C(=O)O)c(=O)[nH]2)cc1OCC | 243 to 245
O=C(O)COc1ccc(C(=NO)c2ccccc2F)c(Cl)c1Cl | 91 to 96
Cc1cn(NCCCc2ccncc2F)c2ccc(O)cc12 | 157 to 160
OCCc1c[nH]c2cc(Cl)c(Cl)cc12 | 65 to 67
O=C(OCc1ccccc1)OCC1OC(n2cc(F)c(=O)[nH]c2=O)C(O)C1O (centres undefined) | 66 to 68
Clc1ccc([C@@H]2CNc3ccccc3S2)cc1 | 151 to 153
OCc1c(Cl)ccc(C2OCCO2)c1Cl | 82 to 85
CCSC1=C(C#N)C(c2ccccc2)(c2ccccc2)C(=O)N1CCCBr | 97
O=C(CCCCCS(=O)c1ccc(-c2ccc(Cl)cc2)cc1)NO (centres undefined) | 108 to 110
